In patent publication US6413960B1, “Substituted pyrazolyl benzenesulfonamides for the treatment of asthma” (G.D. Searle & Co., priority 1993, dated 2002):
Like-named read-outs stand apart in the source and are kept apart here.

Experiments:
[1] = test system: Male Sprague-Dawley rats (carrageenan foot edema); conditions: for RAT PAW EDEMA % Inhibition (* Assay performed at 30 mg/kg body weight): 30 mg/kg body weight (values marked *)
Protocol: Rat Carrageenan Foot Pad Edema Test
Male Sprague-Dawley rats were selected in each group so that the average body weight was as close as possible. Rats were fasted with free access to water for over sixteen hours prior to the test. […] One hour later a subplantar injection of 0.1 mL of 1% solution of carrageenan/sterile 0.9% saline was administered and the volume of the injected foot was measured with a displacement plethysmometer connected to a pressure transducer with a digital indicator. Three hours after the injection of the carrageenan, the volume of the foot was again measured.

[2] = test system: Male Sprague-Dawley rats (carrageenan hyperalgesic foot withdrawal); conditions: rat, in vivo
Protocol: Rat Carrageenan-induced Analgesia Test
Male Sprague-Dawley rats were treated as previously described for the carrageenan Foot Pad Edema test. Three hours after the injection of the carrageenan, the rats were placed in a special plexiglass container with a transparent floor having a high intensity lamp as a radiant heat source, positionable under the floor. After an initial twenty minute period, thermal stimulation was begun on either the injected foot or on the contralateral uninjected foot. A photoelectric cell turned off the lamp and timer when light was interrupted by paw withdrawal. The time until the rat withdraws its foot was then measured. The withdrawal latency in seconds was determined for the control and drug-treated groups, and percent inhibition of the hyperalgesic foot withdrawal determined.

Human COX II = target: T1, Human COX II (Homo sapiens, UniProt P35354); assay: Assay for COX II activity in vitro (PGE2 ELISA, recombinant enzyme); type: biochemical; conditions: read-out: Human COX II ID50
T1 construct: A 2.0 kb fragment containing the coding region of either human or murine COX-I or human or murine COX-II; made in house; host or cells: SF9 insect cells (baculovirus, transfer vector pVL1393)
T1 sequence (P35354 18-604): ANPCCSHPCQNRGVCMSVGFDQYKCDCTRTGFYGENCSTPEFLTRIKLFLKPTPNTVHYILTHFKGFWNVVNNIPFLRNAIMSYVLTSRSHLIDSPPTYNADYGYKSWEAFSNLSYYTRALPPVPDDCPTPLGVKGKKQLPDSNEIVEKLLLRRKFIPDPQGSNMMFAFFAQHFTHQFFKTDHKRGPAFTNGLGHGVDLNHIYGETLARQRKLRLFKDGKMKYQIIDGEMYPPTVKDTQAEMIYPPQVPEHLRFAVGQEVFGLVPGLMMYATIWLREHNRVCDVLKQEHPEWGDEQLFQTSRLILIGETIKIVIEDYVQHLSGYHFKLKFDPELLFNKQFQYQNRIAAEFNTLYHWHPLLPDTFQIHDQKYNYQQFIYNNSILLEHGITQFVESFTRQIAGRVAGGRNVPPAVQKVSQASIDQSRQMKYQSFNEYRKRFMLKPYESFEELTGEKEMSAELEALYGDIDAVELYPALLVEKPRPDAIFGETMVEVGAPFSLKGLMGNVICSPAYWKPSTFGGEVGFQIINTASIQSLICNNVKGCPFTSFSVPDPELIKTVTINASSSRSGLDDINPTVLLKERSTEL
Protocol: The COX II inhibition activity of the compounds of this invention illustrated in the Examples was determined by the following methods.

Human COX I = target: T2, Human COX I (Homo sapiens, UniProt P23219); assay: Assay for COX I activity in vitro (PGE2 ELISA, recombinant enzyme); type: biochemical
T2 construct: A 2.0 kb fragment containing the coding region of either human or murine COX-I or human or murine COX-II; made in house; host or cells: SF9 insect cells (baculovirus, transfer vector pVL1393)

[3] = oral, foot volume 3 h after carrageenan
[4] = oral, 10 mg/kg body weight, foot volume 3 h after carrageenan

T2 sequence (P23219 24-599): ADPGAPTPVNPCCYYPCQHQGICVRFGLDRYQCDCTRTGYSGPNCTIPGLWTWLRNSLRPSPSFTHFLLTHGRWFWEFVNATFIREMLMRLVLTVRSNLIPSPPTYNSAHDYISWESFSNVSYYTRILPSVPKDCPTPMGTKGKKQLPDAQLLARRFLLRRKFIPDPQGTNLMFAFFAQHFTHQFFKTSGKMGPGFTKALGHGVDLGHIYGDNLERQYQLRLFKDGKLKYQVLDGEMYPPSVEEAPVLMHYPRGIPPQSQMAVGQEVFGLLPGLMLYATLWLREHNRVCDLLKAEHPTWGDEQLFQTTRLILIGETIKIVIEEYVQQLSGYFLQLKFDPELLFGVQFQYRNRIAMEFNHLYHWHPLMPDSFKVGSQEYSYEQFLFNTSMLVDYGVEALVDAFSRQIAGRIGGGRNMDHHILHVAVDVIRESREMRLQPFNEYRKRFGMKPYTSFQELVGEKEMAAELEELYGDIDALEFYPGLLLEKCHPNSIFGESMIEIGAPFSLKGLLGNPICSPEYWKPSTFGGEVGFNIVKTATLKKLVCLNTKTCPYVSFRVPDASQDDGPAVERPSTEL

| SMILES | IC50 (Human COX II) | melting point | further results |
| --- | --- | --- | --- |
| NS(=O)(=O)c1ccc(-n2nc(C(F)(F)F)cc2-c2ccc(Cl)cc2)cc1 [Example 1, 4-[5-(4-Chlorophenyl)-3-(trifluoromethyl)-1H-pyrazol-1-yl]benzenesulfonamide] |  |  | RAT PAW EDEMA % Inhibition @ 10 mg/kg body weight ([1]; in vivo): 44%; ANALGESIA % Inhibition @ 30 mg/kg body weight [2]: 94% |
| COc1c(Cl)cc(-c2cc(C(F)(F)F)nn2-c2ccc(S(N)(=O)=O)cc2)cc1Cl [Example 3, 4-[5-(3,5-Dichloro-4-methoxyphenyl)-3-(trifluoromethyl)-1H-pyrazol-1-yl]benzenesulfonamide] | < 0.1 µM |  |  |
| C=CCc1cc(-c2cc(C(F)(F)F)nn2-c2ccc(S(N)(=O)=O)cc2)ccc1OC [Example 6, 4-[5-(3-(3-Propenyl)-4-methoxyphenyl)-3-(trifluoromethyl)-1H-pyrazol-1-yl]benzenesulfonamide] |  |  | IC50 (Human COX I): 78.7 µM |
| CCCc1cc(-c2cc(C(F)(F)F)nn2-c2ccc(S(N)(=O)=O)cc2)ccc1OC [Example 7, 4-[5-(3-Propyl-4-methoxyphenyl)-3-(trifluoromethyl)-1H-pyrazol-1-yl]benzenesulfonamide] | 14 µM |  |  |
| COc1ccc(-c2cc(C(F)(F)F)nn2-c2ccc(S(N)(=O)=O)cc2)cc1CC1CC1 [Example 8, 4-[5-(3-Cyclopropylmethyl-4-methoxyphenyl)-3-(trifluoromethyl)-1H-pyrazol-1-yl]benzenesulfonamide] | 37.7 µM |  |  |
| NS(=O)(=O)c1ccc(-n2nc(C(F)F)cc2-c2ccc3c(c2)OCO3)cc1 [Example 82, 4-[5-(1,3-Benzodioxol-5-yl)-3-(difluoromethyl)-1H-pyrazol-1-yl]benzenesulfonamide] |  |  | RAT PAW EDEMA % Inhibition (* Assay performed at 30 mg/kg body weight) [1, 3]: 22* % |
| COC(=O)c1cc(-c2cc(F)c(OC)c(F)c2)n(-c2ccc(S(N)(=O)=O)cc2)n1 [Example 84, Methyl 1-(4-aminosulfonylphenyl)-5-(3,5-difluoro-4-methoxyphenyl)-1-H-pyrazole-3-carboxylate] | < 0.1 µM |  | IC50 (Human COX I; read-out: Human COX I ID50): 65.5 µM |
| COC(=O)c1cc(-c2ccc(Cl)cc2)n(-c2ccc(S(N)(=O)=O)cc2)n1 [Example 85, Methyl [1-(4-aminosulfonylphenyl)-5-(4-chlorophenyl)-1H-pyrazole-3-yl]carboxylate] | 73.6 µM | 227 °C |  |
| CCOC(=O)c1cc(-c2ccc(Cl)cc2)n(-c2ccc(S(N)(=O)=O)cc2)n1 [Example 86, Ethyl [1-(4-aminosulfonylphenyl)-5-(4-chlorophenyl)-1H-pyrazole-3-yl]carboxylate] | 0.5 µM |  |  |
| NC(=O)c1cc(-c2ccc(Cl)cc2)n(-c2ccc(S(N)(=O)=O)cc2)n1 [Example 96] | 6.5 µM | 108 to 110 °C |  |
| NS(=O)(=O)c1ccc(-n2nc(C(=O)Nc3cccc(Cl)c3)cc2-c2ccc(F)cc2)cc1 [Example 98, N-(3-Chlorophenyl)-[1-(4-aminosulfonylphenyl)-5-(4-fluorophenyl)-1H-pyrazol-3-yl]carboxamide] |  |  | RAT PAW EDEMA % Inhibition (* Assay performed at 30 mg/kg body weight) [1, 3]: 2* % |
| N#Cc1cc(-c2ccc(F)cc2)n(-c2ccc(S(N)(=O)=O)cc2)n1 [Example 117] |  |  | RAT PAW EDEMA % Inhibition @ 10 mg/kg body weight [1, 4]: 32% |
| NS(=O)(=O)c1ccc(-n2nc(C(F)(F)Cl)cc2-c2ccc(Cl)cc2)cc1 [Example 129, 4-[5-(4-Chlorophenyl)-3-(chloro-difluoromethyl)-1H-pyrazol-1-yl]benzenesulfonamide] | < 0.1 µM | 130 to 133 °C | RAT PAW EDEMA % Inhibition (* Assay performed at 30 mg/kg body weight) [1, 3]: 47* %; IC50 (Human COX I; read-out: Human COX I ID50): 13.5 µM |
| COc1ccc(-c2cc(C(Cl)Cl)nn2-c2ccc(S(N)(=O)=O)cc2)cc1F [Example 130, 4-[3-(Dichloromethyl)-5-(3-fluoro-4-methoxyphenyl)-1H-pyrazol-1-yl]benzenesulfonamide] | 3.6 µM | 190 to 193 °C | IC50 (Human COX I; read-out: Human COX I ID50): 12.5 µM |
| NS(=O)(=O)c1ccc(-n2nc(C(F)F)cc2-c2cnccn2)cc1 [Example 137, 4-[5-(2-Pyrazinyl)-3-(difluoromethyl)-1H-pyrazol-1-yl]benzenesulfonamide] |  | 191 to 194 °C |  |
| Cc1c(-c2cc(C(F)(F)F)nn2-c2ccc(S(N)(=O)=O)cc2)ccc2c1OCO2 [Example 138, 4-[5-(4-methyl-1,3-benzodioxol-5-yl)-3-(trifluoromethyl)-1H-pyrazol-1-yl]benzenesulfonamide] | 0.6 µM |  | IC50 (Human COX I; read-out: Human COX I ID50): < 0.1 µM |
| NS(=O)(=O)c1ccc(-n2nc(CCCO)cc2-c2ccccc2)cc1 [Example 172, 4-[5-Phenyl-3-(3-hydroxypropyl)-1H-pyrazol-1-yl]benzenesulfonamide] | 4.2 µM |  |  |

| SMILES | IC50 (Human COX II) | melting point | further results |
| --- | --- | --- | --- |
| NS(=O)(=O)c1ccc(-n2nc(CCCO)cc2-c2ccc(F)cc2)cc1 [Example 173, 4-[5-(4-Fluorophenyl)-3-(3-hydroxypropyl)-1H-pyrazol-1-yl]benzenesulfonamide] | 4.7 µM |  |  |
| NS(=O)(=O)c1ccc(-n2nc(CCC(=O)O)cc2-c2ccc(F)cc2)cc1 [Example 174] | 3.5 µM | 180 to 182 °C |  |
| CCOC(=O)C(C#N)=Cc1cc(-c2ccccc2)n(-c2ccc(S(N)(=O)=O)cc2)n1 [Example 176, Ethyl 3-[1-[4-(aminosulfonyl)phenyl]-5-phenyl-1H-pyrazol-3-yl]-2-cyano-2-propenoate] | 0.3 µM |  |  |
| NS(=O)(=O)c1ccc(-n2nc(C=NOCc3ccccc3)cc2-c2ccc(Cl)cc2)cc1 [Example 177, 4-[5-(4-Chlorophenyl)-3-[[(phenylmethoxy)imino]methyl]-1H-pyrazol-1-yl]benzenesulfonamide] |  | 158 to 159 °C |  |
| NS(=O)(=O)c1ccc(-n2nc(C(F)(F)F)c3c2-c2ccccc2CC3)cc1 [Example 187, 4-[4,5-Dihydro-3-(trifluoromethyl)-1H-benz[g]indazol-1-yl]benzenesulfonamide] |  | 257 to 258 °C |  |
| Cc1ccc2c(c1)CCc1c(C(F)(F)F)nn(-c3ccc(S(N)(=O)=O)cc3)c1-2 [Example 188, 4-[4,5-Dihydro-7-methyl-3-(trifluoromethyl)-1H-benz[g]indazol-1-yl]benzenesulfonamide] |  | 215 to 218 °C | IC50 (Human COX I; read-out: Human COX I ID50): 19.8 µM |
| NS(=O)(=O)c1ccc(-n2nc(C(F)(F)F)c3c2-c2ccsc2CC3)cc1 [Example 196, 4-[4,5-Dihydro-3-(trifluoromethyl)-1-H-thieno[3,2-g]indazol-1-yl]benzenesulfonamide] | 0.6 µM | 288 to 290 °C | IC50 (Human COX I; read-out: Human COX I ID50): 4.1 µM |
| NS(=O)(=O)c1ccc(-n2ncc(Cl)c2-c2ccc(Cl)cc2)cc1 [Example 197, 4-[5-(4-Chlorophenyl)-4-chloro-1H-pyrazol-1-yl]benzenesulfonamide] |  | 168 to 171 °C (dec.) | RAT PAW EDEMA % Inhibition (* Assay performed at 30 mg/kg body weight) [1, 3]: 45* % |
| NS(=O)(=O)c1ccc(-n2nc(C(F)(F)F)c(Cl)c2-c2ccc(Cl)cc2)cc1 [Example 199, 4-[5-(4-Chlorophenyl)-3-(trifluoromethyl)-4-chloro-1H-pyrazol-1-yl]benzenesulfonamide] |  |  | RAT PAW EDEMA % Inhibition @ 10 mg/kg body weight [1, 4]: 35% |
| Cc1c(C(F)(F)F)nn(-c2ccc(S(N)(=O)=O)cc2)c1-c1ccccc1 [Example 201, 4-[4-Methyl-5-phenyl-3-(trifluoromethyl)-1H-pyrazol-1-yl]benzenesulfonamide] | < 0.1 µM | 145 to 146 °C | IC50 (Human COX I; read-out: Human COX I ID50): 2.2 µM |
| CCc1c(C(F)(F)F)nn(-c2ccc(S(N)(=O)=O)cc2)c1-c1ccc(OC)c(C)c1 [Example 202, 4-[4-Ethyl-5-(3-methyl-4-methoxyphenyl)-3-(trifluoromethyl)-1H-pyrazol-1-yl]benzenesulfonamide] | < 0.1 µM | 135 to 136 °C | IC50 (Human COX I; read-out: Human COX I ID50): 91 µM |
| NS(=O)(=O)c1ccc(-n2nc(C(F)(F)F)c(C3CC3)c2-c2ccccc2)cc1 [Example 203, 4-[4-Cyclopropyl-5-phenyl-3-(trifluoromethyl)-1H-pyrazol-1-yl]benzenesulfonamide] | 27 µM | 173 to 174 °C |  |
| NS(=O)(=O)c1ccc(-n2nc(C(F)(F)F)c(CO)c2-c2ccccc2)cc1 [Example 204, 4-[4-hydroxymethyl-5-phenyl-3-(trifluoromethyl)-1H-pyrazol-1-yl]benzenesulfonamide] | 6.7 µM |  |  |
| CC(C)Cc1nn(-c2ccc(S(N)(=O)=O)cc2)c(-c2ccccc2)c1Cl [Example 205, 4-(4-Chloro-3-isobutyl-5-phenyl-1H-pyrazol-1-yl)benzenesulfonamide] |  |  | IC50 (Human COX II; recombinant human COX II, arachidonic acid 10 μM, PGE2 ELISA): < 0.1 µM; IC50 (Human COX I; recombinant human COX I, arachidonic acid 10 μM, PGE2 ELISA, read-out: Human COX I ID50): 2.1 µM |
| CN(C)C=NS(=O)(=O)c1ccc(-n2nc(C#N)c(Cl)c2-c2ccc(F)cc2)cc1 [Example 259] | 1.1 µM |  |  |
| CN(C)C=NS(=O)(=O)c1ccc(-n2nc(C#N)c(Br)c2-c2ccccc2)cc1 [Example 260, 4-[4-Bromo-3-cyano-5-phenyl-1H-pyrazol-1-yl]-N-[(dimethylamino)methylene]benzenesulfonamide] | 1.1 µM |  |  |
